Source: patent publication US8912128B2 (priority 2012, dated 2014)
Where “and” joins values, the source holds several entries; their conditions need not be identical. Equal values may be shown once.

What was measured:
[1] = target: whole cholera toxin (ctxAB5) (Vibrio cholerae serotype O1, UniProt P01556); type: binding
[2] = target: cholera toxin secreted from Vibrio cholerae culture (Vibrio cholerae serotype O1, UniProt P01556)
cholera toxin secreted from Vibrio cholerae culture, sequence (P01556 whole entry, looked up): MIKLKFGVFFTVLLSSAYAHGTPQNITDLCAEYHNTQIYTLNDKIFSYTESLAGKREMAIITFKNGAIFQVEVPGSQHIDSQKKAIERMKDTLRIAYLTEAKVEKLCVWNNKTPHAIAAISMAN

whole cholera toxin (ctxAB5), sequence (P01556 whole entry, looked up): as above

Row | Substance | coefficient of determination of linear relation between fluorescence intensity and whole cholera toxin concentration [1] | limit of detection (LOD) of cholera toxin determined from the dose-response curve [1] | visual limit of detection (LOD) of cholera toxin [1] | whole cholera toxin concentration at which fluorescence intensity was saturated [1] [µg/mL] | fluorescence signal with Vibrio cholerae culture [2]
1 | GM1 pentasaccharide | 0.9935 | 2 ng/mL and 23 pM | 5 ng/mL and 57.5 pM | ≥ 1 | high fluorescence intensity
2 | GM2 tetrasaccharide | – | – | 750 ng/mL | – | high fluorescence intensity
3 | asialo GM1 tetrasaccharide | – | – | 1000 ng/mL | – | –
